Reference: patent US10308682B2, “Inhibition of tumor growth with aggregates of small molecules” (BRANDEIS UNIVERSITY, priority 2013, dated 2019)

Columns and labels:
[1] = system: HeLa cells; test: Cell migration assay of HeLa cells; format: cell-based; conditions: 18 h
Protocol: FIG. 3 depicts the response of cancer cells toward molecular aggregates of 1. (a) Intracellular concentration of 1 in HeLa cells treated with 1 for 12 h at different temperatures measure by LC-MS (left bar=37° C.; right bar=4° C.). (b) Confocal images of FITC annexin V and PI stained HeLa cells without incubation with 1 (live cells), HeLa cells treated with 400 μM of 1 for 36 h, and necrotic HeLa cells (induced by DMSO). Scale bar=20 μm. (c) Fluorescence emission of 7-AAD and 1 in cell lysate (15,000 cell/mL) at λex=488 nm. (d) Cell cycle analysis, by flow cytometry, of HeLa cells treated with 0, 300 or 400 μM of 1 for 24 h. Depletion of G2/M phase occurs in cells treated with 400 μM of 1. (e) Cell migration assay of HeLa cells treated with 0, 300, 400 or 500 μM of 1. The gaps were created on the HeLa cells of 100% confluence in 24 well plates, and measured after incubation for 18 h.
Because apoptosis associates with cell cycle, we examined the effect of the aggregates of 1 on the cell cycle. […] The cell-cycle distribution of the HeLa cells incubated with 400 μM of 1 indicates significant decrease of the peaks of S phase and G2/M phase. […] The slight right shift of the whole spectra results from the overlapping of emission of 7-AAD and 1 (FIG. 3c). But such shift barely hampers the distribution of cell-cycle of the spectra. The aggregates of 1 also delay the migration of the HeLa cells.

[2] = molecular target: T1, tubulin heterodimers (Sus scrofa, UniProt P02550+P02554); test: In vitro tubulin polymerization assay; format: biochemical
T1 construct: purchased Cytoskeleton
T1 sequence (P02550 whole entry): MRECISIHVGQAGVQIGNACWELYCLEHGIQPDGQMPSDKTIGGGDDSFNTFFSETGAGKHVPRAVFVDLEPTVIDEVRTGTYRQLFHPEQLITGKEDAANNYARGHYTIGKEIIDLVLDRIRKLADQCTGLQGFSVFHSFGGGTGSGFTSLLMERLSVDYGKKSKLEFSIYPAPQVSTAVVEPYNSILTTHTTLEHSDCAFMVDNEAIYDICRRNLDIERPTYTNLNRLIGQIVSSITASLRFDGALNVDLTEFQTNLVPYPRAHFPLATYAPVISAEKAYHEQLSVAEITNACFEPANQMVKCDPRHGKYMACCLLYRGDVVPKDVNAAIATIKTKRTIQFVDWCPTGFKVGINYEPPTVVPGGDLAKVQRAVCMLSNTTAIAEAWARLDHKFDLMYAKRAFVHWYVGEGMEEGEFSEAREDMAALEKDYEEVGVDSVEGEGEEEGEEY
T1 sequence (P02554 whole entry): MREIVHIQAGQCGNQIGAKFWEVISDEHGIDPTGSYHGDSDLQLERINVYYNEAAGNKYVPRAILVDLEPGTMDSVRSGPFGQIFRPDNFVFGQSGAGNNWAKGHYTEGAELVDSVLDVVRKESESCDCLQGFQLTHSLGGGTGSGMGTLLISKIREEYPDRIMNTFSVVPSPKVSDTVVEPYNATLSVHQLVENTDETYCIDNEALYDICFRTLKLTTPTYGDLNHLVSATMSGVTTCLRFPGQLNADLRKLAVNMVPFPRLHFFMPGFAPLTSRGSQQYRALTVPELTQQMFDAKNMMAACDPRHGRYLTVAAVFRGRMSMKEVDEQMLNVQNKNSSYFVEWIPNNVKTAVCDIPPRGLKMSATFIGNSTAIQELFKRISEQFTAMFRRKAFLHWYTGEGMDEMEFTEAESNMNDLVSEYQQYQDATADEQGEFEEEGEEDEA
Source text: Tubulin polymerization assay in the presence of 1. In vitro tubulin polymerization reactions in (a) as prepared or (c) filtered reaction cocktail without 1 (control) or with different concentrations of 1. The amount of microtubule is in proportion to optical density at 340 nm. The calculated polymerization rate (Vmax) and the final tubulin polymer mass vs concentrations of 1 from tubulin polymerization in (b) as prepared or (d) filtered reaction cocktail. Negative stained TEM images of molecular aggregates of 1 binding with tubulin. Buffer (control) or 1 (final concentration at 200 to 500 μM) was introduced into reaction cocktail containing fully assembled microtubule (after 60 min of polymerization). The amount of microtubule remain unchanged after 30 min. (e) Molecular aggregates of 1 (400 μM) incubated with tubulins heterodimers in general tubulin buffer. Scale bar=40 nm. White arrows point at tubulin clusters on the molecular aggregates of 1. Confocal images of tubulin stained HeLa and other cell lines. (f) Time dependent cytotoxicity of 1 towards HeLa cells. Data are presented as mean±SD of three independent experiments. Tubulin staining of HeLa cells treated with as-prepared medium containing (g) 0 μM, (h) 200 μM, (i) 300 μM and (j) 400 μM of 1, and filtered medium (k) containing 400 μM of 1 for 24 h. Insets are 3× enlarged images. T98G (l, m) and PC12 (n, o) were also treated with as-prepared medium containing 0 or 400 μM of 1 for 24 h for tubulin staining DNA was counterstained blue by DAPI. Scale bar=10 μm. See also FIG. 12.
As the major function of tubulin is to polymerize into microtubule, we carried out in vitro tubulin polymerization assay to evaluate how the molecular aggregates of 1 affect the polymerization of tubulin. We incubated tubulin heterodimers (i.e., the α- and β-tubulin heterodimer, existing almost exclusively in heterodimer form in cytoplasm) with 1 at different concentrations and monitored the formation of microtubule (FIG. 5). […] At 300 μM of 1, the polymerization curve starts to deviate slightly from the control curve. […] To confirm that the molecular aggregates of 1, but not monomeric 1, inhibit the formation of microtubules, we filtrated of the reaction mixture by a 0.22 μm PVDF filter before the addition of tubulins. […] However, filtrated reaction mixtures containing 200 to 500 μM of 1 has similar polymerization curve to that of control.

[3] = system: tau; test: Hydrogel based protein pull-down assay, tau; format: binding; conditions: protein mass-spectrometry
Protocol: One reason is that PC12 cells have slower metabolism and growth (e.g., doubling every 72 h) than that of cancer cells. […] Another reason is that, PC12 cells, as a neuronal cell, have abundant amount of microtubule-stabilizing proteins (e.g., tau and MAP2) to promote tubulin polymerization and stabilize microtubules. […] Therefore, the existence of microtubule-stabilizing proteins in neurons can counter the effect of the molecular aggregates of 1, which is consistent with that PC12 cells, incubated with 1 at 400 μM (FIG. 5p), still display intact microtubule network. These two effects together, protect the PC12 cells from cytotoxicity induced by molecular aggregates of 1 (FIG. 7).
4×10^7 of HeLa cells were scrapped from petri dish and washed with PBS buffer for 3 times then centrifuged at 300 g for 5 minutes. The collected cell pellet was mixed with phosphate buffer (100 mM) then snap freeze and thaw for 3 cycles to lyse the cells. The cell lysate was clarified by centrifugation at 12,000 g for 20 min at 4° C. to remove the whole cells, nuclei and large mitochondria. 50 μL of the supernatant lysate was gently mixed with 30 μL hydrogel of 1 (10 mM in PBS buffer, pH 7.6) on rotator at RT for 30 min. The hydrogel was collected by centrifugation (12,000 g, 5 min, 4° C.) and the supernatant was collected and placed on ice before analysis. […]

O=C(Cc1ccc2ccccc2c1)N[C@@H](Cc1ccccc1)C(=O)N[C@@H](Cc1ccccc1)C(=O)O [Compound 1]
gap coverage by migrating cells ([1]; 300 μM): 47 % of the gaps
gap coverage by migrating cells ([1]; 400 or 500 μM): 27 % of the gaps
polymerization rate (Vmax) ([2]; 200 μM or 300 μM, as prepared): barely inhibits the polymerization of tubulins
final amount of polymers (microtubule) ([2]; 300 μM, as prepared): slightly decreases the amount of microtubules
polymerization rate (Vmax) ([2]; 400 or 500 μM, as prepared): drastically decreases the Vmax
reduction of final amount of polymers (microtubule) ([2]; 400 or 500 μM, as prepared): about 30 % decrease
Vmax and final amount of polymers after filtration ([2]; 400 or 500 μM, filtered by 0.22 μm PVDF filter): only causes slight decreases in both Vmax and the final amount of polymers of tubulins
interaction of aggregates of 1 with tau [3]: little or no interaction
